# US5519028A, “Antiviral preparations” (priority 1992, dated 1996)
# Where two headings read alike, the source gives them in different places.
# Tests used:
# HIV = type: cell-based
# HIV-1 [1] = system: HIV-1
# IL-1β = IL-1β production by monocytes of normal donors; type: cell-based, human
# Experimental: (§1) The effects of flavopereirine on the production of primary (IL-1β and TNF-α) and secondary (IL-6) cytokines by monocytes was also tested. The adhesive monocytes used were taken from the blood of two types of donors:
# Normal donors--voluntary blood donors who attended the blood bank of the Pitie-Salpetriere Hospital, Paris, France; and
# Product H was not used in these experiments at a rate of more than 20 μg/ml water, since above this rate, net toxicity could have been produced.
# [2] = system: human PBMC stimulated with PHA (blasts); assay: Cytotoxicity in PHA-stimulated PBMC with or without human AB serum; type: cell-based
# Experimental: The cytotoxicity of flavopereirine (compound H) in human PBMC stimulated with PHA was tested in the presence and absence of human AB serum as shown in Table IX.
# HIV-1 [3] = assay: microbe, parasite or virus in culture; settings: Human immunodeficiency virus 1, PBMC, read-out: concentration totally inhibiting replication of HIV-1
# HIV-1 TIG2 (HIV-1AIDS) [4] = assay: HIV P24 production, target PBMC pretreated, isolate TIG2; type: cell-based; settings: for Post-infection production of HIV P24: PBMC + 30 μg/ml 2 hours
# Experimental: (§2) To test the efficacy of flavopereirine on the infectious capability of HIV-1, two experiments were conducted. […] After 2 hours of incubation, the cells were rinsed twice and cultivated in 1 ml of RPMI 1640 containing 20 IU of IL-2 per ml (Boehringer […], Germany), 2 μg of Polybrene (hexadimethrine bromide) per ml (Sigma, St. Louis, Mo., USA) and 10^-7 IU of goat antiserum acting against human alpha interferon (Janssen, Beerse, Belgium) per ml. Half the culture was changed after 72 hours, and thereafter every 48 hours until the 30th day. […] The surface material of the culture was tested by an immuno-enzymatic (ELISA) assay for the production of antigen P24 (Abbott, Chicago, Ill., USA) and the optical density (OD) of the resulting color was converted into P24 concentration from the slope of a standard nomogram, as described by W. Lu and J. -M. Andrieu, Journal of Virology, 66(1): 334-340 (1992).
# HIV-1 [5] = assay: HIV-1 cytopathogenic effect on MT4 cells (syncytia count); type: cell-based
# Experimental: An evaluation of the antiviral effect of flavopereirine was also undertaken by studying the cytopathogenic effect of the HIV virus on MT4 cells, given that a formation of syncytia was observed 4-6 days after infection by HIV-1, followed by the death of the cells.
# The flavopereirine was used in the form of an alcoholic solution (40 mg in 100 μl alcohol). Dilutions were made in RPMI medium at 10% of FCS, 1% of PSN and 1% of glutamine. The MT4 cells were left to pre-incubate for two hours at 37° C. with a successive dilution of flavopereirine containing 3×10^5 cells for 10 μl of flavopereirine solution. The solution was obtained by adding 100 μl of a 10^-4 dilution of HIV-1 virus, producing a syncytia formation in 4-6 days. After one hour of incubation at 37° C., the infected MT4 cells were washed three times with RPMI solution before being placed in culture (3×10^5 cells/ml in microplates with 24 wells) with the presence of different dilutions of flavopereirine. The syncytia count was taken each day in duplicate.
# influenza virus = settings: cited from earlier work
# [6] = system: viruses of the Shope fibrome type; settings: intracutaneously 200-600 μg or 2.5-500 mg/day; cited from earlier work
# TNF-α = TNF-α production by monocytes of HIV-positive donors; type: cell-based, human
# Experimental: as §1
# HIV-positive donors from medical consultations. These individuals were in the early stages of HIV infection and, at the moment of taking the blood, were not undergoing any treatment. The risk factors involved were intravenous drug abuse for six of the donors, sexual transmission for three and blood transfusion (in Zaire) for one patient. No correlation was found between the risk factors and the results of the experiments.
# The response of the monocytes taken from the various HIV-positive donors was tested in terms of spontaneous response. The quantities of cells received were low (the donors were not affected by cytapheresy), and the experiments were therefore limited by the number of cells available.
# HIV-1 TIG2 (HIV-1AIDS) [7] = assay: HIV P24 production in PBMC, viral inoculum pretreated, isolate TIG2; type: cell-based; settings: virus pretreated with 30 or 60 μg/ml
# Experimental: as §2
# [8] = Cytotoxicity (viability) in resting PBMC; type: cell-based, human; settings: human, pbmc, read-out: Viability of PBMC after exposure; for viability at 72 h: d3; for viability at 168 h: d7; for viability at 264 h: d11; for viability at 312 h: d13; for viability at 360 h: d15
# Experimental: (§3) To evaluate the cytotoxicity of flavopereirine in resting PBMC and in blast cells, prewashed fresh and blastic PBMC taken from five randomly-selected,healthy, HIV-negative donors were treated in triplicate with 30 or 60 μg flavopereirine per ml of alcoholic solution for two hours, After washing twice, the cells were placed in culture in cellular culture medium until day 15. The viability of the cells of each group was examined by exclusion coloring with trypan blue and by quantimetric analysis. Cultures of HIV-negative PBMC without flavopereirine (compound H) were used as controls.
# human PBMC at rest = assay: Cytotoxicity (viability) in resting PBMC; type: cell-based
# Experimental: as §3
compound,measurement,setting,value
CCc1ccc2c3[nH]c4ccccc4c3cc[n+]2c1 [flavopereirine],infectious units detectable,HIV,≤ 3000
same,inhibition of infection,HIV,exceeds 99%
same,reduction in quantity of infected cells,HIV; h-9 cells,around 40%
same,Production of P24 in HIV,"HIV-1 [1]; 50% AB serum, 10 μg/ml 2 hrs, d4",384 ± 83 pg/mL
same,Production of P24 in HIV,"HIV-1 [1]; 50% AB serum, 10 μg/ml 2 hrs, d10",> 1500 pg/mL
same,Production of P24 in HIV,"HIV-1 [1]; 50% AB serum, 30 μg/ml 2 hrs, d4",275 ± 98 pg/mL
same,Production of P24 in HIV,"HIV-1 [1]; 50% AB serum, 30 μg/ml 2 hrs, d10",> 1500 pg/mL
same,efficacy on inhibition of wild HIV-1 in human serum,HIV-1 [1]; 50% human serum,remained unchanged
same,influence of constituents of human serum,HIV-1 [1]; HIV-1 inhibition at non-cytotoxic concentrations,did not appear to be influenced by the constituents of the human serum
same,Production of P24 in HIV,"HIV-1 [1]; no serum, 10 μg/ml 2 hrs, d4",388 ± 124 pg/mL
same,Production of P24 in HIV,"HIV-1 [1]; no serum, 10 μg/ml 2 hrs, d10",> 1500 pg/mL
same,Production of P24 in HIV,"HIV-1 [1]; no serum, 30 μg/ml 2 hrs, d4",173 ± 102 pg/mL
same,Production of P24 in HIV,"HIV-1 [1]; no serum, 30 μg/ml 2 hrs, d10",> 1500 pg/mL
same,direct activity on production of IL-1β,"IL-1β; donor #10, 10 and 20 μg/ml",responded very well
same,direct activity on production of IL-1β,"IL-1β; donors #3, 5 and 6, dose effect, marginal",Increase in the production of IL-1β
same,indirect activity on production of IL-1β,"IL-1β; response to LPS or IFN-γ+LPS, p<0.05",no significant modification
same,viability of blast PBMC,"[2]; 200 μg/ml, p<0.001",diminished significantly
same,significant reduction of viability of blast PBMC,"[2]; 100, 60, 30 and 10 μg/ml",this was not the case
same,IC100,HIV-1 [3],60 to 100 µg/mL
same,Post-infection production of HIV P24,HIV-1 TIG2 (HIV-1AIDS) [4]; d3,515 ± 103 pg/mL
same,Post-infection production of HIV P24,HIV-1 TIG2 (HIV-1AIDS) [4]; d5,> 1500 pg/mL
same,inhibition of productive viral infections,HIV-1 TIG2 (HIV-1AIDS) [4]; target PBMC pretreated with 60 μg/ml only,complete inhibition of productive viral infections
same,syncytia,"HIV-1 [5]; 100 ng/ml, d7, duplicate, Table I",++/T
same,syncytia,"HIV-1 [5]; 1 μg/ml, d7, duplicate, Table I",++/T
same,syncytia,"HIV-1 [5]; 30 μg/ml, d6, duplicate, Table III",a few were observed after 6 days
same,syncytia,"HIV-1 [5]; 50 μg/ml, d7, duplicate, Table I",syncytia had not formed after 7 days culture
same,protection,"HIV-1 [5]; 50 μg/ml, Table II summary",confirms the protection
same,syncytia,"HIV-1 [5]; 60 μg/ml, d7, duplicate, Table III",no syncytia were formed
same,syncytia,"HIV-1 [5]; from 10 μg/ml to 100 ng/ml, Table I summary","syncytia was observed, as it was in the HIV-1 control"
same,activity against the influenza virus,influenza virus; EP-A-0 059 817,active against the influenza virus
same,action against influenza (RNA virus),influenza virus; in vivo,appears to act in vivo against influenza
same,appearance and development of vital papules,[6],prevents the appearance and development of vital papules
same,indirect activity on production of TNF-α,"TNF-α; 20 μg/ml only, p<0.05",almost total reduction in the production of TNF-α
same,direct activity on base production of TNF-α,TNF-α; HIV-positive donors,No modification on the base production was observed
same,infection of target PBMC,HIV-1 TIG2 (HIV-1AIDS) [7],completely prevented the infection of target PBMC
same,viability at 72 h,[8]; 30 μg/ml 2 hrs,95 ± 4%
same,viability at 168 h,[8]; 30 μg/ml 2 hrs,93 ± 2%
same,viability at 264 h,[8]; 30 μg/ml 2 hrs,88 ± 7%
same,viability at 312 h,[8]; 30 μg/ml 2 hrs,82 ± 10%
same,viability at 360 h,[8]; 30 μg/ml 2 hrs,81 ± 11%
same,viability at 72 h,[8]; 60 μg/ml 2 hrs,56 ± 6%
same,viability at 168 h,[8]; 60 μg/ml 2 hrs,23 ± 4%
same,viability at 264 h,[8]; 60 μg/ml 2 hrs,17 ± 4%
same,viability at 312 h,[8]; 60 μg/ml 2 hrs,12 ± 5%
same,viability at 360 h,[8]; 60 μg/ml 2 hrs,25 ± 8%
same,significant reduction of viability of resting PBMC,human PBMC at rest; 30 μg/ml,this was not the case
same,viability of resting PBMC,"human PBMC at rest; 60 μg/ml, p<0.05",reduced significantly
